This note sets out measurements from BindingDB's records for doi:10.7270/Q2CN72C0 (Burnham Center For Chemical Genomics, 2010).

This assay addresses T1, Nucleotide-binding oligomerization domain-containing protein 1 (Homo sapiens, UniProt Q9Y239).
T1 sequence (Q9Y239 whole entry): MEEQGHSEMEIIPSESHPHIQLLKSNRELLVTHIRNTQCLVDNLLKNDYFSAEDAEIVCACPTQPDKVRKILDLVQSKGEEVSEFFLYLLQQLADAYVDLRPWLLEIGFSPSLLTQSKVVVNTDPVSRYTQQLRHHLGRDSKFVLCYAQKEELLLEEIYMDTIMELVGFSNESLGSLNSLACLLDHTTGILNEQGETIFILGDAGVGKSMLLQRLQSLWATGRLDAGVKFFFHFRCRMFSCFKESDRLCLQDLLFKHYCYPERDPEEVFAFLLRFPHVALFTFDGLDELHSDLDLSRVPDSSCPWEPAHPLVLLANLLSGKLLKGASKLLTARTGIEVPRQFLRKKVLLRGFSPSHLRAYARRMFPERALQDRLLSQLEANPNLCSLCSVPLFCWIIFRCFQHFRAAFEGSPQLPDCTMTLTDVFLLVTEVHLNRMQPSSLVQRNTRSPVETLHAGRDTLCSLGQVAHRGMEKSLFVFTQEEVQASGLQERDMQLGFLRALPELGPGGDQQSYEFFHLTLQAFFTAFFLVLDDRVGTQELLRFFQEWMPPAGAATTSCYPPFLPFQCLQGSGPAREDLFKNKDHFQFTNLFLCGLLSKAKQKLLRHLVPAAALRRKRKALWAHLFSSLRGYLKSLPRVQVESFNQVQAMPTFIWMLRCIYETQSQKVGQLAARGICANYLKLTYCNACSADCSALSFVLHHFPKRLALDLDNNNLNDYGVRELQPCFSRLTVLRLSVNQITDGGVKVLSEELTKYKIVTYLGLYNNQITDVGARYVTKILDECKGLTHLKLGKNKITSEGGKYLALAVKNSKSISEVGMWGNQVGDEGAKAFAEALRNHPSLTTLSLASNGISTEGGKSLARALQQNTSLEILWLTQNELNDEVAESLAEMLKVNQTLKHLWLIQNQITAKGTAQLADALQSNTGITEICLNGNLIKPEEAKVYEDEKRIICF
The assay can be described thus: NOD1 signaling inhibitors, primary screen, cell-based, luminescence, uHTS (AID 1578).
As a reminder, the EC50 is the concentration that produces a half-maximal response. A low value points to higher potency in that assay. `O=C1C(=O)N(c2nccs2)C(c2ccccc2)C1C(=O)c1ccc2c(c1)OCCO2` (stereo not given) registered a concentration for a half-maximal effect (EC50) of 11.5 µM. The same measure for `CCCCCCC1=Cc2c/c(=C3/NN=C(c4ccccc4OC)O3)c(=O)oc2=CC1=O` [6-Hexyl-7-hydroxy-3-[5-(2-methoxy-phenyl)-[1,3,4]oxadiazol-2-yl]-chromen-2-one]: 6.54 µM; for `CCOC(=O)c1sc(N2C(=O)C(=O)C(C(=O)c3ccco3)C2c2cccc([N+](=O)[O-])c2)nc1C` (stereo not given) [MLS001082998]: > 20 µM.

The molecule `CCOc1ccc(-c2csc(/C(C#N)=C/C3C=CC(=O)C([N+](=O)[O-])=C3)n2)cc1` (stereo not given) [SMR000237723] had an EC50 of 1.52 µM. Turning to `C=CCN1C(=O)C(=NNC(=S)Nc2cccc(OC)c2)c2ccccc21` [SMR000132469], the EC50 is > 20 µM. Turning to `Oc1cccc(CN=Nc2ccc(Cl)nn2)c1O`, the concentration for a half-maximal effect (EC50) was > 20 µM. Next, `Cc1ccc(O)c(/N=C/C2=CC(Cc3ccccc3)C=C([N+](=O)[O-])C2=O)c1` (stereo not given) [(6E)-6-[[(5-methyl-2-oxidanyl-phenyl)amino]methylidene]-2-nitro-4-(phenylmethyl)cyclohexa-2,4-dien-1-one]: 6.21 µM; `Oc1c(Br)cc(Br)cc1CN=Nc1ccc(Cl)nn1` [MLS001171109]: > 20 µM; `Cc1cc(CN=Nc2ncnc(N)c2[N+](=O)[O-])c(C)n1-c1ccccc1`: 4.14 µM. Next, `O=C1C([N+](=O)[O-])=CC(Cl)=CC1CN=Nc1ccccn1` (stereo not given) [MLS000539830]: 9.12 µM; `Cc1ccc(C)c(SCC(=O)OCC(=O)C(C#N)c2nc3ccccc3[nH]2)c1` (stereo not given) [MLS000392255]: > 20 µM; `COc1cc(CN=Nc2nc3c(c(=O)n(C)c(=O)n3C)n2Cc2ccccc2)ccc1OC(=O)c1ccco1` [[4-[[(7-benzyl-1,3-dimethyl-2,6-dioxopurin-8-yl)hydrazinylidene]methyl]-2-methoxyphenyl] furan-2-carboxylate]: 5.22 µM. Next, `CCCOC1=CC(=O)C(C=NNC(=S)Nc2ccccc2[N+](=O)[O-])C=C1` (stereo not given) [1-(2-nitrophenyl)-3-[[(E)-(6-oxo-4-propoxy-1-cyclohexa-2,4-dienylidene)methyl]amino]thiourea]: 11.9 µM; `CCCCCCC1=Cc2c/c(=C3/NN/C(=C4/C=CC=CC4=O)O3)c(=O)oc2=CC1=O` [(3E)-6-hexyl-3-[(5E)-5-(6-oxocyclohexa-2,4-dien-1-ylidene)-1,3,4-oxadiazolidin-2-ylidene]chromene-2,7-dione]: 4.51 µM; `Cc1cc(SCC(=O)OCC(=O)C(C#N)c2nc3ccccc3[nH]2)c(C)cc1Br` (stereo not given): > 20 µM. Consider `Cc1cc(CN=Nc2nc(N)ncc2[N+](=O)[O-])c(C)n1-c1ccccc1F` [MLS000392273], for which the EC50 was 4.64 µM. Regarding `Cc1cc(N=NCc2ccccc2[N+](=O)[O-])nc(-n2nc(C)cc2C)n1` [SMR000426946], the EC50 was 6.21 µM.

`COc1ccc(NS(=O)(=O)c2ccc(N=NC(C)c3ccncc3)c([N+](=O)[O-])c2)cc1` (stereo not given) [MLS000393523] yielded a concentration giving a half-maximal response (EC50) of 4.33 µM. Next, `CN1C(=O)C(=NNC(=S)Nc2ccccc2F)c2cc(S(=O)(=O)N3CCOCC3)ccc21` [SMR000314843]: > 20 µM. The molecule `C=CCN1C(=O)C(=NNC(=S)Nc2cccc(C)c2)c2ccccc21` [1-(3-methylphenyl)-3-[(Z)-(2-oxidanylidene-1-prop-2-enyl-indol-3-ylidene)amino]thiourea] displayed a 50% effective concentration (EC50) of 1.09 µM.
